Reference: PMC5127184 (Scientific Reports, 2016)
“Also recorded” adds a separate entry of the source. Ends that are not written are not given here.

What was measured:
purified human DPP-4 = purified human DPP-4 (Homo sapiens, UniProt P27487); assay: Cleavage by purified human DPP-4 (RP-HPLC); type: in vitro ADME; conditions: 30 μM peptide, DPP-4 3 U/L, 0.1 M sodium phosphate pH 7.4, 37 °C, 0-120 min, n = 3
Description: (§1) Samples were analysed by RP-HPLC with solvent A (0.1% TFA in water) and B (80% acetonitrile in 0.1% aqueous TFA) at a flow rate of 0.5 ml/min.

in vitro [1] = type: in vitro ADME, echidna; conditions: 7 μM peptide, 37 °C; for Uncleaved peptide remaining after 11 hours in echidna serum: RP-HPLC, sentence covers platypus and echidna sera; for remaining at 11 h, 7 μM: echidna, 11 h incubation, serum purified by DEAE Affi-Gel Blue, RP-HPLC area under the curve of intact peptide, means ± S.E.M. of three experiments in triplicate
Description: (§2) Aliquots were analysed by RP-HPLC. Human serum was from the author Briony Forbes and provided with informed consent. We confirm that all methods for these studies were carried out in accordance with relevant guidelines and regulations, and all experimental protocols satisfy the Adelaide University Human Research Ethics Committee criteria as being “negligible risk research”.

hGLP-1R [2] = biological target: T1, hGLP-1R (Homo sapiens, UniProt P43220); assay: cAMP accumulation, FlpInCHO-hGLP-1R cells; type: cell-based
T1 construct: expressed in transfected cells
Description: Human and pGLP-1R cDNAs were isogenically integrated into FlpIn-Chinese hamster ovary (FlpInCHO) cells (Invitrogen) and selection of receptor-expressing cells accomplished by treatment with 600 μg/ml hygromycin B as described previously. Transfected and parental FlpInCHO cells were maintained in DMEM supplemented with 10% heat-inactivated FBS and incubated in a humidified environment at 37 °C in 5% CO2. INS-1(832/13) cells were cultured in RPMI-1640 medium supplemented with 10 mM HEPES, 10% heat-inactivated FBS, 2 mM L-glutamine, 1 mM sodium pyruvate, 0.05 mM β-mercaptoethanol, 100 iU/ml penicillin, and 100 µg/ml streptomycin at 37 °C in a humidified 5% CO2 atmosphere. […]
All data were analysed in Prism 6.0c (GraphPad Software Inc., San Diego, CA). Concentration response signalling data were analysed using a three-parameter logistic equation as described previously. Signalling bias was analysed as described. Briefly, quantification of signal bias was performed using pharmacologically derived parameters of agonist affinity (Ka) and efficacy (tau) for each ligand in each of the three signalling pathways (cAMP accumulation, ERK1/2 phosphorylation, Intracellular Ca^2+ mobilisation). The transduction ratio (tau/Ka) was extracted from standard concentration-response data that was analysed with the operational model of agonism (Kenakin & Christopoulos 2012). […]

in vitro [3] = type: in vitro ADME, platypus; conditions: 37 °C; for Effect of DPP-4 inhibitor P32/98 on degradation in platypus serum (in words): 100 μM P32/98, 7 μM peptide, RP-HPLC; for remaining at 11 h, 7 μM: platypus, 11 h incubation, 7 μM peptide, serum purified by DEAE Affi-Gel Blue, RP-HPLC area under the curve of intact peptide, means ± S.E.M. of three experiments in triplicate
Description: as §2

hGLP-1R [4] = biological target: T1, hGLP-1R; assay: ERK1/2 phosphorylation, FlpInCHO-hGLP-1R cells; type: cell-based
Description: (§3) Human and pGLP-1R cDNAs were isogenically integrated into FlpIn-Chinese hamster ovary (FlpInCHO) cells (Invitrogen) and selection of receptor-expressing cells accomplished by treatment with 600 μg/ml hygromycin B as described previously. Transfected and parental FlpInCHO cells were maintained in DMEM supplemented with 10% heat-inactivated FBS and incubated in a humidified environment at 37 °C in 5% CO2.
FlpInCHO-hGLP-1R and FlpInCHO-pGLP-1R cells were seeded at a density of 3 × 10^4 cells/well into 96-well culture plates and incubated overnight at 37 °C in 5% CO2. Receptor-mediated ERK1/2 phosphorylation was determined as previously described.
(§4) All data were analysed in Prism 6.0c (GraphPad Software Inc., San Diego, CA). Concentration response signalling data were analysed using a three-parameter logistic equation as described previously. Signalling bias was analysed as described. Briefly, quantification of signal bias was performed using pharmacologically derived parameters of agonist affinity (Ka) and efficacy (tau) for each ligand in each of the three signalling pathways (cAMP accumulation, ERK1/2 phosphorylation, Intracellular Ca^2+ mobilisation). […] Data are presented on a log scale.

in vitro [5] = type: in vitro ADME, human; conditions: 7 μM peptide, 37 °C; for Stability in albumin-depleted human serum (in words): 0-11 h, RP-HPLC, n = 3; for remaining at 11 h, 7 μM: human, 11 h incubation, serum purified by DEAE Affi-Gel Blue (albumin-depleted), RP-HPLC area under the curve of intact peptide, means ± S.E.M. of three experiments in triplicate
Description: as §2

hGLP-1R [6] = biological target: T1, hGLP-1R; assay: Radioligand competition binding, FlpInCHO-hGLP-1R cells
Description: Human and pGLP-1R cDNAs were isogenically integrated into FlpIn-Chinese hamster ovary (FlpInCHO) cells (Invitrogen) and selection of receptor-expressing cells accomplished by treatment with 600 μg/ml hygromycin B as described previously. Transfected and parental FlpInCHO cells were maintained in DMEM supplemented with 10% heat-inactivated FBS and incubated in a humidified environment at 37 °C in 5% CO2. INS-1(832/13) cells were cultured in RPMI-1640 medium supplemented with 10 mM HEPES, 10% heat-inactivated FBS, 2 mM L-glutamine, 1 mM sodium pyruvate, 0.05 mM β-mercaptoethanol, 100 iU/ml penicillin, and 100 µg/ml streptomycin at 37 °C in a humidified 5% CO2 atmosphere.
FlpInCHO-hGLP-1R and FlpInCHO-pGLP-1R cells were seeded at a density of 3 × 10^4 cells/well and INS-1(832/13) cells at 10^5 cells/well into 96-well culture plates and incubated overnight at 37 °C in 5% CO2. […] Cells were then lysed in 0.1 M NaOH, and radioactivity determined by γ-counting as described previously.
All data were analysed in Prism 6.0c (GraphPad Software Inc., San Diego, CA). Concentration response signalling data were analysed using a three-parameter logistic equation as described previously. Signalling bias was analysed as described. […] The transduction ratio (tau/Ka) was extracted from standard concentration-response data that was analysed with the operational model of agonism (Kenakin & Christopoulos 2012). […]

hGLP-1R [7] = biological target: T1, hGLP-1R; assay: Intracellular Ca2+ mobilization, FlpInCHO-hGLP-1R cells; type: cell-based
Description: as §3
(§5) FlpInCHO-hGLP-1R and FlpInCHO-pGLP-1R cells were seeded at a density of 3 × 10^4 cells/well into 96-well culture plates and incubated overnight at 37 °C in 5% CO2 and receptor-mediated intracellular Ca^2+ mobilization determined as described previously.
as §4

DPP-4 [8] = assay: Cleavage by purified human DPP-4 (RP-HPLC); type: in vitro ADME; conditions: human, isolated enzyme dpp iv, 30 μM peptide, DPP-4 3 U/L, 0.1 M sodium phosphate pH 7.4, 37 °C, UV 215.8 nm, n = 3, read-out: Time to 50% reduction of intact peptide with purified human DPP-4
Description: as §1

INS-1 (832/13) cells = assay: cAMP accumulation, INS-1 (832/13) cells; type: cell-based; conditions: normalized to forskolin response, means ± S.E.M. of at least three experiments in triplicate
pGLP-1R [9] = assay: Intracellular Ca2+ mobilization, FlpInCHO-pGLP-1R cells; type: cell-based, platypus; conditions: normalized to 100 μM ATP, means ± S.E.M. of at least three experiments in triplicate
Description: as §3, §5, §4

pGLP-1R [10] = assay: Radioligand competition binding, FlpInCHO-pGLP-1R cells; design: species or system platypus; conditions: competition with 125I-hGLP-1 (7–36), 0.15 nM, FlpInCHO cells stably expressing pGLP-1R, overnight 4 °C; means ± S.E.M. of two or three experiments in triplicate
Description: as §3
Cells were then incubated overnight at 4 °C, followed by three washes with ice-cold 1 × PBS to remove unbound radioligand. Cells were then lysed in 0.1 M NaOH, and radioactivity determined by γ-counting as described previously.
as §4

[11] = 12.5% echidna serum in 100 mM sodium phosphate buffer (PH 7.4), 150 mM NaCl, 0.2% Tween-20; conditions: 37 °C, up to 4 h
[12] = 12.5% platypus serum in 100 mM sodium phosphate buffer (PH 7.4), 150 mM NaCl, 0.2% Tween-20; conditions: 37 °C, up to 4 h
[13] = 12.5% human serum in 100 mM sodium phosphate buffer (PH 7.4), 150 mM NaCl, 0.2% Tween-20; conditions: 37 °C, up to 4 h
[14] = purified human serum in the presence of DPP-4 inhibitor P32/98; conditions: 37 °C, up to 11 h
echidna serum = conditions: 37 °C, up to seven hours
DPP-4 [15] = assay: DPP-4 (3 U/L) in sodium phosphate buffer (0.1 M, pH 7.4); conditions: human, 37 °C, up to 120 min
[16] = albumin-depleted human serum (purified by DEAE Affi-Gel Blue Cartridges); conditions: 37 °C, up to 11 h

T1 sequence (P43220 24-463): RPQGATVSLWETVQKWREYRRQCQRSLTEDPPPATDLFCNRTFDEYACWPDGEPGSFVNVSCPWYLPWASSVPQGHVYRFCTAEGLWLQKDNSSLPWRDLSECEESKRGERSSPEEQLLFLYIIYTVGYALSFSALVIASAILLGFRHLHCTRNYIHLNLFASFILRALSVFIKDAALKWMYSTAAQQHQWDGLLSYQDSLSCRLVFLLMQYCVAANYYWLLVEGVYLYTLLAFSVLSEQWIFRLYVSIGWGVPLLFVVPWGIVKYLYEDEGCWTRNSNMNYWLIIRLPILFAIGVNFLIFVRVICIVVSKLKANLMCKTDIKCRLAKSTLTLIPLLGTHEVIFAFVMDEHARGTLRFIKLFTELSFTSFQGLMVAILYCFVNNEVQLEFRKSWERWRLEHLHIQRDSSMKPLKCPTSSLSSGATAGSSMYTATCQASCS
Sequence of purified human DPP-4 (P27487 whole entry): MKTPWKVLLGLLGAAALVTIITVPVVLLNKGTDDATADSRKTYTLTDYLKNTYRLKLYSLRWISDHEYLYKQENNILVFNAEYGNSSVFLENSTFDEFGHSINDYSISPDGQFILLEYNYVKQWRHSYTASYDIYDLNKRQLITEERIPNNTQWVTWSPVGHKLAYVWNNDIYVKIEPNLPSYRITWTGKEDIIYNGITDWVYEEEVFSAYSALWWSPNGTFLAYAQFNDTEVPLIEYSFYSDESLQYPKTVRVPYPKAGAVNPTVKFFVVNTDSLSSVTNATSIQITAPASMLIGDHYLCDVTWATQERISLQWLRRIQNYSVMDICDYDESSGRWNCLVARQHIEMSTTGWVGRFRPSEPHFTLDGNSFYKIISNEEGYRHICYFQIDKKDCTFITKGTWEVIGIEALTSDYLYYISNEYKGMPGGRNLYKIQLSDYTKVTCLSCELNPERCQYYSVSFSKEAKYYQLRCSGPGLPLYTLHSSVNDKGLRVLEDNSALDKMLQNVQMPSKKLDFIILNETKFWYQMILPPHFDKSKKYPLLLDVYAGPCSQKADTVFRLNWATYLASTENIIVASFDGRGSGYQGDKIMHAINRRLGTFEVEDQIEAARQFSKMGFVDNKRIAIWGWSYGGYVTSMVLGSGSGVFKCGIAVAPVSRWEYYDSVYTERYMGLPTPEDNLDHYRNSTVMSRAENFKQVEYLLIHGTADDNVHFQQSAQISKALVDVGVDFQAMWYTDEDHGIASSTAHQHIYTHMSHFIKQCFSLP

Question: Which results are given for “HFDGVYTDYFSRYLEEKATNEFIDWLLKGQE [eGLP-1]”?
Answer: Degradation by purified human DPP-4 (in words) (purified human DPP-4): not degraded; Uncleaved peptide remaining after 11 hours in echidna serum (in vitro [1]): less than 50%; remaining at 11 h, 7 μM (in vitro [1]): 42.4 ± 4.3%; EC50 (hGLP-1R [2]): 126 nM; Effect of DPP-4 inhibitor P32/98 on degradation in platypus serum (in words) (in vitro [3]): did not alter the cleavage pattern; remaining at 11 h, 7 μM (in vitro [3]): 48.3 ± 3.5%; EC50 (hGLP-1R [4]): 794 nM; Stability in albumin-depleted human serum (in words) (in vitro [5]): remained stable; remaining at 11 h, 7 μM (in vitro [5]): 99.3 ± 1.8%; IC50 (hGLP-1R [6]): 25.1 nM; EC50 (hGLP-1R [7]): 10000 nM

Question: Which half-life at 30 μM (DPP-4 [8]) does the source give for `CC[C@H](C)[C@H](NC(=O)[C@H](Cc1ccccc1)NC(=O)[C@H](CCC(=O)O)NC(=O)[C@H](CCCCN)NC(=O)[C@H](C)NC(=O)[C@H](C)NC(=O)[C@H](CCC(N)=O)NC(=O)CNC(=O)[C@H](CCC(=O)O)NC(=O)[C@H](CC(C)C)NC(=O)[C@H](Cc1ccc(O)cc1)NC(=O)[C@H](CO)NC(=O)[C@H](CO)NC(=O)[C@@H](NC(=O)[C@H](CC(=O)O)NC(=O)[C@H](CO)NC(=O)[C@@H](NC(=O)[C@H](Cc1ccccc1)NC(=O)[C@@H](NC(=O)CNC(=O)[C@H](CCC(=O)O)NC(=O)[C@H](C)NC(=O)[C@@H](N)Cc1c[nH]cn1)[C@@H](C)O)[C@@H](C)O)C(C)C)C(=O)N[C@@H](C)C(=O)N[C@@H](Cc1c[nH]c2ccccc12)C(=O)N[C@@H](CC(C)C)C(=O)N[C@H](C(=O)N[C@@H](CCCCN)C(=O)NCC(=O)N[C@@H](CCCNC(=N)N)C(=O)NCC(=O)O)C(C)C` [hGLP-1] here?
Answer: Its half-life at 30 μM is ≤ 1 h.

Question: What about the “pEC50 INS-1 (832/13) cAMP accumulation” value (INS-1 (832/13) cells) of the same compound?
Answer: Its value is 9.6 ± 0.3.

Question: And the “pEC50 pGLP-1R CHO Ca2+ mobilization” value (pGLP-1R [9])?
Answer: Its value is 8.3 ± 0.1^&.

Question: And the “pIC50 pGLP-1R CHO” value (pGLP-1R [10])?
Answer: Its value is 8.9 ± 0.1.

Question: For H-Ala-Pro-p-nitroanilide, which cleaved bond [11] is on record?
Answer: The cleaved bond was “Pro-p-nitroanilide”.

Question: And the cleaved bond [12]?
Answer: The cleaved bond was “Pro-p-nitroanilide”.

Question: And the cleaved bond [13]?
Answer: The cleaved bond was “Pro-p-nitroanilide”.

Question: What does the source list for HAEGTFTSDVSSYLEGQAAKEFIAWLVKGRG?
Answer: not cleaved [14]: remained intact (0% degraded); fragment found (echidna serum): hGLP-1 (1-22) HAEGTFTSDVSSYLEGQAAKEF

Question: With “HSEGTFTNDVTRLLEEKATSEFIAWLLKGLE [pGLP-1]” as the compound, how does the “Degradation by purified human DPP-4 (in words)” value (purified human DPP-4) read?
Answer: Its value is “not degraded”.

Question: What about the “Uncleaved peptide remaining after 11 hours in echidna serum” value (in vitro [1]) of the same compound?
Answer: The value was “less than 50%”.

Question: What about the remaining at 11 h, 7 μM (in vitro [1]) of the same compound?
Answer: Its remaining at 11 h, 7 μM is 49.4 ± 2.9%.

Question: What about the EC50 (hGLP-1R [2]) of the same compound?
Answer: Its EC50 is 2 nM.

Question: What about the “Effect of DPP-4 inhibitor P32/98 on degradation in platypus serum (in words)” value (in vitro [3]) of the same compound?
Answer: The value was “did not alter the cleavage pattern”.

Question: And the remaining at 11 h, 7 μM (in vitro [3])?
Answer: Its remaining at 11 h, 7 μM is 55.1 ± 3.5%.

Question: And the EC50 (hGLP-1R [4])?
Answer: Its EC50 is 12.6 nM.

Question: And the “Stability in albumin-depleted human serum (in words)” value (in vitro [5])?
Answer: Its value is “remained stable”.

Question: And the remaining at 11 h, 7 μM (in vitro [5])?
Answer: The remaining at 11 h, 7 μM was 96.4 ± 2%.

Question: What about the IC50 (hGLP-1R [6]) of the same compound?
Answer: The IC50 was 12.6 nM.

Question: And the EC50 (hGLP-1R [7])?
Answer: The EC50 was 316 nM.

Question: Which cleaved bond (echidna serum) does the source give for HFDGVYTDYFSRYLEEKATNEFIDWLLKGQE here?
Answer: Its cleaved bond is “T19-N20; also recorded: R12-Y13; also recorded: Y13-L14”.

Question: What about the not cleaved (DPP-4 [15]) of the same compound?
Answer: The not cleaved was “not degraded by human DPP-4”.

Question: What about the not cleaved [16] of the same compound?
Answer: The not cleaved was 99.3 ± 1.8% after 11 h.

Question: Which results are given for HSEGTFTNDVTRLLEEKATSEFIAWLLKGLE?
Answer: cleaved bond (echidna serum): R12-L13; also recorded: L14-E15; also recorded: E16-K17; also recorded: T19-S20; also recorded: L26-L27; also recorded: K28-G29; not cleaved (DPP-4 [15]): not degraded by human DPP-4; not cleaved [16]: 96.4 ± 2.0% after 11 h
